Source: patent US10912767B2, “Anthracycline prodrugs and methods of making and using the same” (THE REGENTS OF THE UNIVERSITY OF COLORADO, priority 2015, dated 2021)
Where two headings read alike, the source gives them in different places.

Columns and labels:
[1] = test system: MDA-MB-231 breast carcinoma cells; assay: Tumor cell uptake by flow cytometry; format: cell-based, human; conditions: 500 nM, 30 min to 4 h, compared against doxorubicin
Description: Uptake of the drugs by the cells was measured by flow cytometry. The cells were incubated with 500 nM photodoxazolidine R═H, azido-PEG-photodoxazolidine, or doxorubicin dissolved in 1:1 PBS:serum-free media for between 30 min and 4 h, after which the drug was removed and the cells washed with cold PBS. Cells were trypsinized to a single-cell suspension, rinsed again in cold PBS, and stored on ice for analysis by flow cytometry, monitoring the presence of the anthraquinone fluorophore (channel FL2). Cell populations were gated for intact cells in the side-scatter/forward-scatter plot and 10,000 gated events were scored for each timepoint. The mean fluorescence of the population was compared to the mean fluorescence of 10,000 gated events for an untreated population and the fold increase over background was plotted versus time of drug incubation.
Using MDA-MB-231 breast carcinoma cells, the cellular uptake of photodoxazolidine and azido-PEG-photodoxazolidine was analyzed by flow cytometry and compared against the uptake of doxorubicin.

[2] = Photolysis timecourses, near UV blacklight 350 nm, HPLC; format: physicochemical
Source text: (§1) In order to investigate the photolysis of the drugs in a system amenable to cell culture use, a custom UV irradiation apparatus was constructed, consisting of 3 small blacklight fluorescent bulbs (Southern New England Ultraviolet Co., λmax=350 nm) set between two ring stands and suspended at a height of 11.5 cm. The bulbs' housing was reflective aluminum so as to direct as much UV irradiation as possible downward toward the plate. Upon installation in sterile cell culture hood, the power of the system was measured at approximately 6-7 mW using a Scientech laser power meter. Prior to experimentation, the hood and irradiation apparatus was sterilized with 254 nm germicidal UV irradiation overnight. Using this setup, 100 μM of 4,5-dimethoxy-2-nitrobenyl alcohol (DMNA), photodoxazolidine R═H, and glucose-PEG-photodoxazoldine were irradiated in individual wells of a 24-well plate. Initially, 50 μL of a DMSO stock was diluted with 950 μL of PBS and aliquots of 50 μL were removed at various times (0-180 min), mixing by pipetting each time. The timepoints were analyzed by HPLC (method 2) and plotted as fractional conversion versus time. […] Therefore, a second experiment was performed in which the PBS was replaced with 1:1 acetonitrile:water. With this system of 5% DMSO/47.5% acetonitrile/47.5% water, no visible precipitation was produced over the course of the reaction.
The measured quantum yield of 0.002 for photodoxazolidine R═H (above) was lower than expected, which raised the possibility that the presence of the anthraquinone ring complex in the prodrugs was inhibiting photocleavage by quenching the activated state. To test whether this, the irradiation kinetics of DMNA (4, 5-dimethoxy-2-nitrobenzyl alcohol) was compared against photodoxazolidine R═H, which contains the DMNA unit as the photoactivating group. Additionally, glucose-PEG-photodoxazoldine was included for comparison; a synthetic precursor to this compound, azido-PEG-photodoxazolidine, is suspected of having a quantum yield of 0.01-0.02, which is 5-10-fold larger than photodoxazolidine. Irradiation was performed in 24-well cell culture dishes using the cell culture irradiation system described above with the soft-glass high-pass filter. […] In both cases, photodoxazolidine was the slowest to produce dox from the irradiation. In line with its quantum yield, glucose-PEG-photodoxazolidine reacted 4-5-fold faster than photodoxazolidine. However, DMNA was by far the fastest to undergo photochemistry in this system, converting to product approximately 30-fold faster than photodoxazolidine.

[3] = test system: MDA-MB-231 breast cancer cells; assay: Tumor cell growth inhibition, crystal violet (Example 2); format: cell-based, human; conditions: for IC50: read-out: IC50
Source text: as §1
(§2) The ovarian carcinoma line NCl/ADR-RES (ADR) was grown in high-glucose Dulbecco's Modified Eagle Medium (DMEM) supplemented with 10% fetal bovine serum (FBS), 200 units/mL of penicillin and 200 μg/mL of streptomycin. The breast carcinoma line MDA-MB-231 was cultured in low-glucose DMEM with the same additives. Both lines were maintained in a humidified incubator with 5% CO2/95% air at 37° C. UV irradiations were performed with the apparatus described above.
(§3) Growth inhibition experiments were performed by seeding cells into 96-well plates or 24-well plates at densities of 1000-1500 cells per well or 8000 cells per well, respectively, and allowing the cells to adhere overnight. The media was then replaced with a range of aqueous concentrations of the drug in question and allowed to incubate at 37° C. with the cells for a span of time (Inc1) which ranged from 1 min to 48 hours. Irradiation was performed at room temperature with the plate's lid removed and ranged from 1 to 30 min. In some experiments, the drug solution was removed following Inc1 and irradiated in clean media or PBS. Following irradiation, the cells were placed back into the 37° C. incubator for a second period of incubation (Inc2), which varied between 1 min and 24 h, prior to replacement with fresh media. Plates which received no irradiation but identical treatment otherwise were done in parallel. The cells were then grown until the no-drug control wells reached approximately 80% confluence or 5 days, whichever was shorter. […] The cells were fixed with 5% formalin in PBS, stained with crystal violet, washed with tap water, and air-dried. The stain was resolubilized in 50% isopropyl alcohol, 50% H2O containing 2% (w/v) SDS. The staining density was read on a multiwell plate reader at 588-600 nm. Percentage cell density was calculated relative to the irradiated no-drug control wells, plotted as a function of drug concentration, and fit using non-linear least squared analysis with a variable-slope dose response model in GraphPad Prism 5.0 software.
(§4) Although the introduction of a long-pass glass filter between the light source and the plate alleviated this effect to a small extent, a maximum irradiation time of 10 min was settled upon. […] Since a media change at that point would remove the cells as well, the re-adherence of the cell population was accomplished by the addition of a large volume (200 μL) of complete media following Inc2, and overnight incubation. Then, a full media change was done to remove the drug. […]

[4] = test system: NCI/ADR-RES multi-drug resistant ovarian cancer cell line; assay: as above; format: cell-based; conditions: for IC50: read-out: IC50
Source text: as §1, §2, §3, §4

[5] = Solubility observed in irradiation solvent; format: physicochemical
Source text: In order to investigate the photolysis of the drugs in a system amenable to cell culture use, a custom UV irradiation apparatus was constructed, consisting of 3 small blacklight fluorescent bulbs (Southern New England Ultraviolet Co., λmax=350 nm) set between two ring stands and suspended at a height of 11.5 cm. The bulbs' housing was reflective aluminum so as to direct as much UV irradiation as possible downward toward the plate. Upon installation in sterile cell culture hood, the power of the system was measured at approximately 6-7 mW using a Scientech laser power meter. Prior to experimentation, the hood and irradiation apparatus was sterilized with 254 nm germicidal UV irradiation overnight. Using this setup, 100 μM of 4,5-dimethoxy-2-nitrobenyl alcohol (DMNA), photodoxazolidine R═H, and glucose-PEG-photodoxazoldine were irradiated in individual wells of a 24-well plate. Initially, 50 μL of a DMSO stock was diluted with 950 μL of PBS and aliquots of 50 μL were removed at various times (0-180 min), mixing by pipetting each time. The timepoints were analyzed by HPLC (method 2) and plotted as fractional conversion versus time. […]
The measured quantum yield of 0.002 for photodoxazolidine R═H (above) was lower than expected, which raised the possibility that the presence of the anthraquinone ring complex in the prodrugs was inhibiting photocleavage by quenching the activated state. […]

With `COc1cc(COC(=O)N2COC3C(C)OC(OC4CC(O)(C(=O)CO)Cc5c(O)c6c(c(O)c54)C(=O)c4c(OC)cccc4C6=O)CC32)c([N+](=O)[O-])cc1OC` (stereo not drawn) [Photodoxazolidine] the “cellular uptake (cellular fluorescence)” value [1] was “rapid increase in cellular fluorescence”, the “k in ACN: H2O, relative rate constant for photocleavage” value ([2]; 100 μM, 1:1 acetonitrile:water, near UV 350 nm) was 0.0069 min⁻¹ and the “k in PBS, relative rate constant for photocleavage” value ([2]; 100 μM, PBS, near UV 350 nm) was 0.0026 min⁻¹. The “k in ACN: H2O, fold over photodoxazolidine” value ([2]; 1:1 acetonitrile:water) was “(1.0)”, the “k in PBS, fold over photodoxazolidine” value ([2]; PBS) was “(1.0)” and the “fold drop of IC50 on near UV irradiation” value ([3]; MDA-MB-231, 10 min UV vs alone) was “approximately 22 fold”. The IC50 ([3]; MDA-MB-231, +UV 10 min, near UV 350 nm) was 73 nM, the IC50 ([3]; MDA-MB-231, prodrug alone, no UV, listed as Photodoxaz) was 1600 ± 120 nM and the IC50 ([3]; MDA-MB-231, prodrug alone, no UV, listed as photodoxazolidine) was roughly 1600 nM. For the same compound, the “fold drop of IC50 on near UV irradiation” value ([4]; 10 min UV vs alone) was “more than 30 fold”, the IC50 ([4]; +UV 10 min, near UV 350 nm) was 110 nM and the “times more toxic than doxorubicin alone” value ([4]; prodrug alone) was 2-3 times. The IC50 ([4]; prodrug alone, no UV) was 3500 ± 800 nM, the IC50 ([4]; prodrug alone) was roughly 3500 nM and the “solubility in PBS” value [5] was “poor solubility”.
